Experimental data published in publication PMC5218480 (PLoS ONE, 2017).

System: MV-4-11 cells
Assay: Gene expression microarray analysis (Affymetrix PrimeView) and GSEA
Format: cell-based, human
Set-up: RFU PODN (11730768_x_at) / Fold change /veh PODN (11730768_x_at) / RFU LINC00158 (11744669_a_at) / Fold change /veh LINC00158 (11744669_a_at) / RFU DUSP10 (11751237_a_at) / Fold change /veh DUSP10 (11751237_a_at) / RFU ID3 (11757404_x_at) / Fold change /veh ID3 (11757404_x_at) / RFU PLEKHG5 (11737974_s_at) / Fold change /veh PLEKHG5 (11737974_s_at) / RFU LRRC4B (11730491_at) / Fold change /veh LRRC4B (11730491_at) / RFU GIMAP4 (11747438_a_at) / Fold change /veh GIMAP4 (11747438_a_at) / RFU KRT8 (11758183_x_at) / Fold change /veh KRT8 (11758183_x_at) / RFU CNN1 (11734310_a_at) / Fold change /veh CNN1 (11734310_a_at) / RFU VPS37D (11726825_at) / Fold change /veh VPS37D (11726825_at) / RFU C10orf10 (11716522_x_at) / Fold change /veh C10orf10 (11716522_x_at) / RFU KIR2DL2 /// KIR2DL4 /// KIR2DL5A /// KIR2DL5B /// KIR2DS1 /// KIR2DS2 /// KIR2DS3 /// KIR2DS4 /// KIR3DL3 /// KIR3DL3 /// KIR3DS1 (11738374_at) / Fold change /veh KIR2DL2 /// KIR2DL4 /// KIR2DL5A /// KIR2DL5B /// KIR2DS1 /// KIR2DS2 /// KIR2DS3 /// KIR2DS4 /// KIR3DL3 /// KIR3DL3 /// KIR3DS1 (11738374_at) / RFU C1QL1 (11718748_at) / Fold change /veh C1QL1 (11718748_at) / RFU TMPRSS4 (11747572_a_at) / Fold change /veh TMPRSS4 (11747572_a_at) / RFU HAMP (11756126_x_at) / Fold change /veh HAMP (11756126_x_at) / RFU RNFT2 (11725882_a_at) / Fold change /veh RNFT2 (11725882_a_at) / RFU NR4A2 (11747474_a_at) / Fold change /veh NR4A2 (11747474_a_at) / RFU ABCC12 (11746883_a_at) / Fold change /veh ABCC12 (11746883_a_at) / RFU TMEM136 (11760407_x_at) / Fold change /veh TMEM136 (11760407_x_at) / RFU CLDN22 /// WWC2 (11732394_at) / Fold change /veh CLDN22 /// WWC2 (11732394_at) / RFU HLA-DPB1 (11760878_x_at) / Fold change /veh HLA-DPB1 (11760878_x_at) / RFU SPINT1 (11716480_a_at) / Fold change /veh SPINT1 (11716480_a_at) / RFU GAP43 (11754022_s_at) / Fold change /veh GAP43 (11754022_s_at) / RFU A4GNT (11735810_at) / Fold change /veh A4GNT (11735810_at) / RFU PRB3 (11715151_x_at) / Fold change /veh PRB3 (11715151_x_at) / RFU TUBB4B (11761932_at) / Fold change /veh TUBB4B (11761932_at) / RFU CAPN14 (11732068_a_at) / Fold change /veh CAPN14 (11732068_a_at) / RFU TMCC2 (11721928_a_at) / Fold change /veh TMCC2 (11721928_a_at) / RFU IRGQ (11745062_a_at) / Fold change /veh IRGQ (11745062_a_at) / RFU FAM174B (11720279_a_at) / Fold change /veh FAM174B (11720279_a_at) / RFU TMPRSS4 (11748680_a_at) / Fold change /veh TMPRSS4 (11748680_a_at) / RFU FAM212B (11763350_a_at) / Fold change /veh FAM212B (11763350_a_at) / RFU PLEKHG5 (11743358_a_at) / Fold change /veh PLEKHG5 (11743358_a_at) / RFU ZSCAN30 (11745921_a_at) / Fold change /veh ZSCAN30 (11745921_a_at) / RFU CMKLR1 (11741424_a_at) / Fold change /veh CMKLR1 (11741424_a_at) / RFU LOC101060620 /// MAPK8IP1 (11723275_at) / Fold change /veh LOC101060620 /// MAPK8IP1 (11723275_at) / RFU SPTSSB (11747773_x_at) / Fold change /veh SPTSSB (11747773_x_at) / RFU PRSS12 (11739890_at) / Fold change /veh PRSS12 (11739890_at) / RFU BIN1 (11741810_x_at) / Fold change /veh BIN1 (11741810_x_at) / RFU WNT11 (11732464_a_at) / Fold change /veh WNT11 (11732464_a_at) / RFU C10orf10 (11716521_a_at) / Fold change /veh C10orf10 (11716521_a_at) / RFU C5orf56 (11738089_at) / Fold change /veh C5orf56 (11738089_at) / RFU CYB561 (11721691_x_at) / Fold change /veh CYB561 (11721691_x_at) / RFU ANKRD19P (11752326_a_at) / Fold change /veh ANKRD19P (11752326_a_at) / RFU OR2T12 /// OR2T33 /// OR2T8 (11738714_s_at) / Fold change /veh OR2T12 /// OR2T33 /// OR2T8 (11738714_s_at) / RFU VCAN (11748164_a_at) / Fold change /veh VCAN (11748164_a_at) / RFU JSRP1 (11732532_at) / Fold change /veh JSRP1 (11732532_at) / RFU KRTAP10-11 (11738290_x_at) / Fold change /veh KRTAP10-11 (11738290_x_at) / RFU MYO3A (11730013_a_at) / Fold change /veh MYO3A (11730013_a_at) / RFU EBF3 (11725865_a_at) / Fold change /veh EBF3 (11725865_a_at) / RFU CAMK2N1 (11719241_x_at) / Fold change /veh CAMK2N1 (11719241_x_at) / RFU C5orf56 (11738088_a_at) / Fold change /veh C5orf56 (11738088_a_at) / RFU OLFML3 (11715873_a_at) / Fold change /veh OLFML3 (11715873_a_at) / RFU LOC100653217 /// NTM (11731650_a_at) / Fold change /veh LOC100653217 /// NTM (11731650_a_at) / RFU MAPK11 (11762145_a_at) / Fold change /veh MAPK11 (11762145_a_at) / RFU FIZ1 (11724087_x_at) / Fold change /veh FIZ1 (11724087_x_at) / RFU OASL (11726364_x_at) / Fold change /veh OASL (11726364_x_at) / RFU SOX15 (11748057_x_at) / Fold change /veh SOX15 (11748057_x_at) / RFU CD79A (11719716_a_at) / Fold change /veh CD79A (11719716_a_at) / RFU HIST1H1D (11736915_at) / Fold change /veh HIST1H1D (11736915_at) / RFU CASKIN2 (11723855_a_at) / Fold change /veh CASKIN2 (11723855_a_at) / RFU LOC730098 (11760151_x_at) / Fold change /veh LOC730098 (11760151_x_at) / RFU OR4N2 (11742367_at) / Fold change /veh OR4N2 (11742367_at) / RFU PRRT2 (11749266_a_at) / Fold change /veh PRRT2 (11749266_a_at) / RFU SNX32 (11753110_a_at) / Fold change /veh SNX32 (11753110_a_at) / RFU CDHR5 (11726645_a_at) / Fold change /veh CDHR5 (11726645_a_at) / RFU RCAN1 (11760418_a_at) / Fold change /veh RCAN1 (11760418_a_at) / RFU FAM167A (11723789_a_at) / Fold change /veh FAM167A (11723789_a_at) / RFU FAM26E (11764081_at) / Fold change /veh FAM26E (11764081_at) / RFU ISYNA1 (11749810_s_at) / Fold change /veh ISYNA1 (11749810_s_at) / RFU ACY1 (11761880_at) / Fold change /veh ACY1 (11761880_at) / RFU 11764098_at / Fold change /veh 11764098_at / RFU SAMD14 (11745864_x_at) / Fold change /veh SAMD14 (11745864_x_at) / RFU NPB (11741838_a_at) / Fold change /veh NPB (11741838_a_at) / RFU TMPRSS6 (11731388_a_at) / Fold change /veh TMPRSS6 (11731388_a_at) / RFU KRTAP10-2 (11738614_at) / Fold change /veh KRTAP10-2 (11738614_at) / RFU ARHGAP8 /// PRR5-ARHGAP8 (11727945_x_at) / Fold change /veh ARHGAP8 /// PRR5-ARHGAP8 (11727945_x_at) / RFU KRTAP5-7 /// NADSYN1 (11734609_at) / Fold change /veh KRTAP5-7 /// NADSYN1 (11734609_at) / RFU RASL12 (11751679_a_at) / Fold change /veh RASL12 (11751679_a_at) / RFU CDKN2B (11736163_a_at) / Fold change /veh CDKN2B (11736163_a_at) / RFU PRF1 (11729649_at) / Fold change /veh PRF1 (11729649_at) / RFU, ZNF638 /// ZNF638-IT1 / Fold change vs veh, ZNF638 /// ZNF638-IT1 / RFU, PANK3 / Fold change vs veh, PANK3 / RFU, SH3YL1 / Fold change vs veh, SH3YL1 / RFU, ZEB2 / Fold change vs veh, ZEB2 / RFU, NRIP1 / Fold change vs veh, NRIP1 / RFU, PTTG1IP / Fold change vs veh, PTTG1IP / RFU, CAPN2 / Fold change vs veh, CAPN2 / RFU, MED14 / Fold change vs veh, MED14 / RFU, SNORA58 / Fold change vs veh, SNORA58 / RFU, C1orf63 / Fold change vs veh, C1orf63 / RFU, LRRFIP1 / Fold change vs veh, LRRFIP1 / RFU, NDUFAF7 / Fold change vs veh, NDUFAF7 / RFU, SLC12A2 / Fold change vs veh, SLC12A2 / RFU, IBTK / Fold change vs veh, IBTK / RFU, ESF1 / Fold change vs veh, ESF1 / Fold change vs veh, TMEM50B / RFU, TAOK1 / Fold change vs veh, TAOK1 / RFU, ACBD3 / Fold change vs veh, ACBD3 / RFU, TMA16 / Fold change vs veh, TMA16 / RFU, RWDD3 / Fold change vs veh, RWDD3 / RFU, BCAT1 / Fold change vs veh, BCAT1 / RFU, EDEM3 / Fold change vs veh, EDEM3 / RFU, TMEM33 / Fold change vs veh, TMEM33 / RFU, WDR75 / Fold change vs veh, WDR75 / RFU, AHCTF1 / Fold change vs veh, AHCTF1 / RFU, TFRC / Fold change vs veh, TFRC / RFU, ZDHHC17 / Fold change vs veh, ZDHHC17 / RFU, NOM1 / Fold change vs veh, NOM1 / RFU, ARL8B / Fold change vs veh, ARL8B / RFU, ZBTB11 / Fold change vs veh, ZBTB11 / RFU, TAMM41 / Fold change vs veh, TAMM41 / RFU, KIAA1704 /// LOC100996395 / Fold change vs veh, KIAA1704 /// LOC100996395 / RFU, ING1 / Fold change vs veh, ING1 / RFU, TRMT61B / Fold change vs veh, TRMT61B / RFU, FUBP3 / Fold change vs veh, FUBP3 / RFU, TP53 / Fold change vs veh, TP53 / RFU, TNKS2 / Fold change vs veh, TNKS2 / RFU, ZFP14 / Fold change vs veh, ZFP14 / RFU, ACTR2 / Fold change vs veh, ACTR2 / RFU, PPP3R1 / Fold change vs veh, PPP3R1 / RFU, PIK3R1 / Fold change vs veh, PIK3R1 / RFU, HNRNPA1 / Fold change vs veh, HNRNPA1 / RFU, RNF170 / Fold change vs veh, RNF170 / RFU, ZNF28 / Fold change vs veh, ZNF28 / RFU, RNGTT / Fold change vs veh, RNGTT / RFU, OGT / Fold change vs veh, OGT / RFU, BRD1 / Fold change vs veh, BRD1 / RFU, MARS / Fold change vs veh, MARS / RFU, ZNF655 / Fold change vs veh, ZNF655 / RFU, FAHD1 / Fold change vs veh, FAHD1 / RFU, BDP1 / Fold change vs veh, BDP1 / RFU, LRRCC1 / Fold change vs veh, LRRCC1 / RFU, ARID1A / Fold change vs veh, ARID1A / RFU, ZNF146 / Fold change vs veh, ZNF146 / RFU, ZNF330 / Fold change vs veh, ZNF330 / RFU, GPN3 / Fold change vs veh, GPN3 / RFU, C9orf123 / Fold change vs veh, C9orf123 / RFU, N4BP2L2 / Fold change vs veh, N4BP2L2 / RFU, ARFIP1 / Fold change vs veh, ARFIP1 / RFU, FAM179B / Fold change vs veh, FAM179B / RFU, BCL10 / Fold change vs veh, BCL10 / RFU, UHRF1BP1L / Fold change vs veh, UHRF1BP1L / RFU, BET1 / Fold change vs veh, BET1 / RFU, CNOT2 / Fold change vs veh, CNOT2 / RFU, ZNF268 / Fold change vs veh, ZNF268 / Fold change vs veh, ZNF507 / RFU, DGCR2 / Fold change vs veh, DGCR2 / RFU, WDSUB1 / Fold change vs veh, WDSUB1 / Fold change vs veh, HSP90B1 /// MIR3652 / RFU, ADSS / Fold change vs veh, ADSS / RFU, GK / Fold change vs veh, GK / RFU, ZNF148 / Fold change vs veh, ZNF148 / RFU, TAF9 / Fold change vs veh, TAF9 / RFU, SLC1A5 / Fold change vs veh, SLC1A5 / RFU, SLMO2 / Fold change vs veh, SLMO2 / RFU, ABCC4 / Fold change vs veh, ABCC4 / RFU, LOC101060439 /// RAP1B / Fold change vs veh, LOC101060439 /// RAP1B / RFU, RFX7 / Fold change vs veh, RFX7 / RFU, GTPBP10 / Fold change vs veh, GTPBP10 / RFU, CNEP1R1 / Fold change vs veh, CNEP1R1 / RFU, BIVM-ERCC5 /// ERCC5 / Fold change vs veh, BIVM-ERCC5 /// ERCC5 / RFU, ILF3 / Fold change vs veh, ILF3 / RFU 11762660_at / Fold change /veh 11762660_at / RFU VCAN (11757783_s_at) / Fold change /veh VCAN (11757783_s_at) / RFU DDX43 (11728927_at) / Fold change /veh DDX43 (11728927_at) / RFU KRT8 (11758188_x_at) / Fold change /veh KRT8 (11758188_x_at) / RFU NKD1 (11759106_at) / Fold change /veh NKD1 (11759106_at) / RFU SRD5A1 (11742802_a_at) / Fold change /veh SRD5A1 (11742802_a_at) / RFU TPSAB1 /// TPSB2 (11721975_s_at) / Fold change /veh TPSAB1 /// TPSB2 (11721975_s_at) / RFU GSTM3 (11746129_a_at) / Fold change /veh GSTM3 (11746129_a_at) / RFU IL23R (11737362_x_at) / Fold change /veh IL23R (11737362_x_at) / RFU TMEM51 (11727254_a_at) / Fold change /veh TMEM51 (11727254_a_at) / RFU PIWIL2 (11732686_x_at) / Fold change /veh PIWIL2 (11732686_x_at) / RFU ORM1 (11744905_x_at) / Fold change /veh ORM1 (11744905_x_at) / RFU CCDC152 (11743942_at) / Fold change /veh CCDC152 (11743942_at) / RFU ECM1 (11717891_a_at) / Fold change /veh ECM1 (11717891_a_at) / RFU IL23R (11748794_a_at) / Fold change /veh IL23R (11748794_a_at) / RFU TNFAIP8L3 (11732012_x_at) / Fold change /veh TNFAIP8L3 (11732012_x_at) / RFU MBOAT4 (11741988_at) / Fold change /veh MBOAT4 (11741988_at) / RFU 11764193_at / Fold change /veh 11764193_at / RFU TMEM53 (11763286_at) / Fold change /veh TMEM53 (11763286_at) / RFU MAGEB2 (11727129_at) / Fold change /veh MAGEB2 (11727129_at) / RFU TMEM200A (11744735_a_at) / Fold change /veh TMEM200A (11744735_a_at) / RFU CCDC152 (11751479_a_at) / Fold change /veh CCDC152 (11751479_a_at) / RFU FAM211A (11726209_a_at) / Fold change /veh FAM211A (11726209_a_at) / RFU RGS16 (11746705_a_at) / Fold change /veh RGS16 (11746705_a_at) / RFU VCAN (11755009_s_at) / Fold change /veh VCAN (11755009_s_at) / RFU RHOB (11743442_s_at) / Fold change /veh RHOB (11743442_s_at) / RFU RGS16 (11720943_a_at) / Fold change /veh RGS16 (11720943_a_at) / RFU RGS16 (11720944_at) / Fold change /veh RGS16 (11720944_at) / RFU, VPS4B / Fold change vs veh, VPS4B / RFU, CREB1 / Fold change vs veh, CREB1 / RFU, DNAJC13 / Fold change vs veh, DNAJC13 / RFU, GNAQ / Fold change vs veh, GNAQ / RFU, CDK5R1 / Fold change vs veh, CDK5R1 / RFU, ZRANB3 / Fold change vs veh, ZRANB3 / RFU, CUL4A / Fold change vs veh, CUL4A / RFU, CCNY / Fold change vs veh, CCNY / RFU, UFL1 / Fold change vs veh, UFL1 / RFU, COG3 / Fold change vs veh, COG3 / RFU, DIAPH2 / Fold change vs veh, DIAPH2 / RFU, SKA2 / Fold change vs veh, SKA2 / RFU, AFF3 / Fold change vs veh, AFF3 / RFU, LMF1 / Fold change vs veh, LMF1 / RFU, IPO11 / Fold change vs veh, IPO11 / RFU, DFFB / Fold change vs veh, DFFB / RFU, FOXP1 / Fold change vs veh, FOXP1 / RFU, CARD8 / Fold change vs veh, CARD8 / RFU, STRN3 / Fold change vs veh, STRN3 / RFU, ADK / Fold change vs veh, ADK / RFU, RASSF2 / Fold change vs veh, RASSF2 / RFU, WIPF1 / Fold change vs veh, WIPF1 / RFU, LARP1B / Fold change vs veh, LARP1B / RFU, RASA1 / Fold change vs veh, RASA1 / RFU, RB1 / Fold change vs veh, RB1 / RFU, PPFIA1 / Fold change vs veh, PPFIA1 / RFU, MAT2A / Fold change vs veh, MAT2A / RFU, CCT5 / Fold change vs veh, CCT5 / RFU, WDR92 / Fold change vs veh, WDR92 / RFU, CUX1 / Fold change vs veh, CUX1 / RFU, TTC7A / Fold change vs veh, TTC7A / RFU, TMEM135 / Fold change vs veh, TMEM135 / RFU, DEPTOR / Fold change vs veh, DEPTOR / RFU, CPM / Fold change vs veh, CPM / RFU, DNAJB6 / Fold change vs veh, DNAJB6 / RFU, CACNA2D3 / Fold change vs veh, CACNA2D3 / RFU, DTX4 / Fold change vs veh, DTX4 / RFU, TFCP2 / Fold change vs veh, TFCP2 / RFU, GMCL1 /// GMCL1P1 / Fold change vs veh, GMCL1 /// GMCL1P1 / RFU, AEBP2 / Fold change vs veh, AEBP2 / RFU, SNHG1 /// SNORD22 /// SNORD25 /// SNORD26 /// SNORD27 /// SNORD28 /// SNORD29 /// SNORD31 / Fold change vs veh, SNHG1 /// SNORD22 /// SNORD25 /// SNORD26 /// SNORD27 /// SNORD28 /// SNORD29 /// SNORD31 / Fold change (Aza/veh), C12orf56 (ProbeSet 11735607_a_at) / Fold change (ACY-1035/veh), C12orf56 (ProbeSet 11735607_a_at) / Fold change (Aza/veh), FGFR1OP (ProbeSet 11751329_s_at) / Fold change (ACY-1035/veh), FGFR1OP (ProbeSet 11751329_s_at) / Fold change (Aza/veh), VPS36 (ProbeSet 11739960_a_at) / Fold change (ACY-1035/veh), VPS36 (ProbeSet 11739960_a_at) / RFU SYPL1 (11715823_x_at) / Fold change /veh SYPL1 (11715823_x_at) / RFU IGFBP7 (11715501_s_at) / Fold change /veh IGFBP7 (11715501_s_at) / RFU REEP3 (11722064_at) / Fold change /veh REEP3 (11722064_at) / RFU IGLL1 (11728026_x_at) / Fold change /veh IGLL1 (11728026_x_at): dose or concentration left out as unconfirmed
Conditions: MV-4-11 cells, 48 hours

Nc1ncn([C@@H]2O[C@H](CO)[C@@H](O)[C@H]2O)c(=O)n1 [azacitidine]
Fold change /veh 11764193_at: 1.69
